Marks after values point to notes of the source that are not given here.

In data set [1] the test system is 4T1 breast cancer allografts. Nature of the data set: 4T1 breast cancer allograft, tumour volume. The settings on record: 5 mg/kg each drug i.p. twice a week for 2 weeks; control 468 mm^3. It counts as in vivo, BALB/c nude mice. On the procedure: Breast cancer allografts were established in 6–8-week-old BALB/c nude mice by injection of 10^6 4T1 cells into their mammary pad. Two weeks after implantation, mice were randomised into treatment groups (n = 6/group) and treated twice a week for 2 weeks with intraperitoneal injections of dimethyl sulfoxide (DMSO), 5 mg/kg DTX, 5 mg/kg SK-F, 5 mg/kg DTX + 5 mg/kg SK-F. One day after the last treatment, all mice were euthanized and blood was collected. Tumour long and short radii were measured using calipers and tumour volume (v) was calculated using the formula v = 4/3 πab^2 (a – long radius, b – short radius). Mice and individual organs were weighed and primary tumours were then processed for analysis of SK1 activity as described above. Full blood count and liver function test analysis was done in the Hammersmith hospital biochemical lab. […]
(§1) Fig. 5 Effect of compound SK-F on breast tumour growth and SK1 activity. […] Two weeks after implantation, mice were randomised into treatment groups (n = 6/group) and treated twice a week for 2 weeks with intraperitoneal injections of: DMSO, 5 mg/kg DTX, 5 mg/kg SK-F, 5 mg/kg DTX + 5 mg/kg SK-F. a Tumour volume in the different treatment groups of 4T1 breast cancer implanted in mouse mammary fat pad. b SK1 activity in tumours was measured using radiolabelling. […]

Data set [2] in a line: Whole-body toxicity: body and organ weights, full blood count. The settings on record: 5 mg/kg each drug i.p. twice a week for 2 weeks, 4T1 tumour-bearing mice. It counts as in vivo, BALB/c nude mice. On the procedure:
(§2) Breast cancer allografts were established in 6–8-week-old BALB/c nude mice by injection of 10^6 4T1 cells into their mammary pad. Two weeks after implantation, mice were randomised into treatment groups (n = 6/group) and treated twice a week for 2 weeks with intraperitoneal injections of dimethyl sulfoxide (DMSO), 5 mg/kg DTX, 5 mg/kg SK-F, 5 mg/kg DTX + 5 mg/kg SK-F. One day after the last treatment, all mice were euthanized and blood was collected. Tumour long and short radii were measured using calipers and tumour volume (v) was calculated using the formula v = 4/3 πab^2 (a – long radius, b – short radius). Mice and individual organs were weighed and primary tumours were then processed for analysis of SK1 activity as described above. Full blood count and liver function test analysis was done in the Hammersmith hospital biochemical lab.
Tumour-bearing mice were divided into four groups (n = 6) and injected with: DMSO, 5 mg/kg DTX, 5 mg/kg SK-F, 5 mg/kg DTX + 5 mg/kg SK-F. Two weeks after the tumour cells inoculation, we began intraperitoneal injections of drug preparations and continued these twice a week for two weeks. Based on our previous studies, we have chosen relatively smaller doses of SK-F and DTX in order to investigate their combined effect and potential chemosensitisation of breast tumours to taxane therapies. In the control group, tumours grew progressively and rapidly (Fig. 5a). […] Five mg/kg DTX has induced a significant reduction in tumour volume to 281 mm^3. The biggest reduction in tumour volume to 159 mm^3 was observed when DTX was combined with SK-F (Fig. 5a). […] We have further investigated the effects of the used treatments on mouse whole-body toxicity. DTX has reduced body and liver weight, while SK-F had no significant effect (Table 1). DTX has induced significant anaemia and leukopenia, while the effects of SK-F were very moderate. In all cases, the effects of combined therapy were similar to DTX alone (Table 1). Liver function test was performed as a surrogate marker for chemotherapy-induced liver damage (Fig. 6). […] The combination therapy had similar toxicity profile to DTX alone, while exerting higher antitumour efficacy (Fig. 5a).

For the next data set, the target named is T1, tumour SK1 (Mus musculus, UniProt Q8CI15).
T1 construct: primary tumours were then processed for analysis of SK1 activity as described above; from tissue; host or cells: 4T1 breast tumour allografts from BALB/c nude mice
Nature of the data set: SK1 activity in 4T1 allograft tumours. It counts as in vivo, BALB/c nude mice. The settings on record: 5 mg/kg each drug i.p. twice a week for 2 weeks. On the procedure:
as §2, §1

The nature of data set [3]: Liver function tests in treated mice. It counts as in vivo, BALB/c nude mice. The settings on record: 5 mg/kg i.p. twice a week for 2 weeks. On the procedure: as §2
Fig. 6 Liver function tests of mice treated with SK-F and docetaxel (DTX). Breast cancer allografts were established in BALB/c nude mice by injection of 4T1 cells into their mammary pad. Two weeks after implantation, mice were randomised into treatment groups (n = 6/group) and treated twice a week for two weeks with intraperitoneal injections of: DMSO, 5 mg/kg DTX, 5 mg/kg SK-F, 5 mg/kg DTX + 5 mg/kg SK-F. a Alanine transaminases (ALT). b Bilirubin. c Aspartate transaminase (AST). d Albumin. e Alkaline phosphatase (ALP). f Total protein. Columns, mean of n = 6 animals normalised to control; bars, SEM. (*p < 0.05; **p < 0.01)

Data set [4] has as its target T2, endogenous SK1 in MDA-MB-231 cells (Homo sapiens, UniProt Q9NYA1).
T2 construct: We treated MDA-MB-231 cells with 1 µM of compounds SK-A – SK-F and SKI-II as the positive control for 6 h; endogenous in cells; host or cells: MDA-MB-231
Nature of the data set: SK1 activity in lysates of treated MDA-MB-231 cells. It counts as cell-based. The settings on record: 1 µM, 6 h. On the procedure: After incubation, cells were washed with ice-cold phosphate-buffered saline (PBS) and harvested.
(§3) SK assay was performed using radiolabeling as previously described, in conditions favouring SK1 or SK2 activity as required.
(§4) Fig. 2 Inhibition of sphingosine kinase 1 in cell-free extract and in vitro. a 1 µM of compounds SK-A to SK-F and SKI-II (commercial inhibitor of SK used as a positive control) were incubated in the presence of recombinant SK1 extract (in excess), 1 µM of ATP, and 1 µM exogenous sphingosine for 1 h. b MDA-MB-231 cells were incubated with 1 µM of compounds SK-A to SK-F and SKI-II for 6 h. SK1 activity was measured as described in materials and methods. Columns, means of three independent experiments normalised to vehicle; bars, SEM. (ns, non-significant; *p < 0.05; **p < 0.01)
Reportedly, among human tumour cell lines, the breast cancer cell line MDA-MB-231 expresses high levels of SK activity. We treated MDA-MB-231 cells with 1 µM of compounds SK-A – SK-F and SKI-II as the positive control for 6 h and analysed SK1 activity in the cell lysates using SK1 activity assay.

The next data set deals with SK1 protein. The data set is described as follows: SK1 protein level (Figure S9). In kind it is cell-based.
In another data set the test system is SK1 mRNA. Nature of the data set: SK1 mRNA expression by qRT-PCR in MDA-MB-231 cells. It counts as cell-based, human. The settings on record: 1, 2, 5 and 10 µM, 24 h. On the procedure:
Isolation of total RNA from MDA-MB-231 cells was performed using the RNeasy Mini kit (Qiagen, Valencia, CA, USA) as per manufacturer’s instructions. RNA quantity and purity were measured using a NanoDrop ND-1000 Spectrophotometer (Thermo Fisher Scientific, Loughborough, UK). Reverse transcription was performed using precision nanoScript™ reverse transcription kit (PrimerDesign Ltd, Southampton, UK). qRT-PCR was done as already described. Ct values were exported and analysed using qbase software (Biogazelle NV, Zwijnaarde, Belgium).
Fig. 3 Effect of compounds SK-A to SK-F on SK1 mRNA levels. MDA-MB-231 cells were incubated with 1, 2, 5 and 10 µM of compounds SK-A to SK-F for 24 h. SK1 mRNA expression was measured by qRT-PCR. Columns, means of three independent experiments normalised to control; bars, SEM. (*p < 0.05; **p < 0.01)

The next data set concerns the target recombinant SK1 (Homo sapiens, UniProt Q9NYA1). The data set is described as follows: SK1 activity assay, cell-free (recombinant SK1 extract, radiolabelling). The settings on record: 1 µM compound, recombinant SK1 extract in excess, 1 µM ATP, 1 µM sphingosine, 1 h. In kind it is biochemical. On the procedure: as §3
The synthesised compounds were then screened for SK1 inhibition. Compounds SK-A to SK-F and SKI-II (commercial inhibitor of SK used as positive control with reported IC50 0.5 µM [14]) at 1 µM were incubated in the presence of recombinant SK1 extract (in excess), 1 µM of ATP, and exogenous 1 µM sphingosine for 1 h followed by measurement of SK1 activity.
as §4
SK1 activity was determined in the presence of triton X-100 and SK2 activity was measured in the presence of high salt concentrations, conditions that favour SK1 and SK2, respectively. […] Km for SK1 was 6.97 ± 1.20 µM, Vmax 98 ± 4 µM/min/mg protein and Ki for SK-F 0.46 ± 0.1 µM. […] Some SK inhibitors such as SKI-II were previously shown to induce proteasomal degradation of SK1 [48, 49].

In another data set the test system is MDA-MB-231 cells. Nature of the data set: MTT cell viability / proliferation assay. In kind it is cell-based, human. The settings on record: 1, 2, 5 and 10 µM, up to 120 h. On the procedure:
Cellular viability was measured using the 3-(4,5-dimethylthiazol-2-yl)-2,5-diphenyltetrazolium bromide (MTT; 5 mg/ml) colorimetric assay as already described.
Fig. 4 Effect of compounds SK-A to SK-F on breast cancer cell viability. MDA-MB-231 cells were incubated with 1, 2, 5 and 10 µM of compounds SK-A to SK-F for up to 120 h. Cell proliferation was measured using MTT assay. Columns, means of three independent experiments normalised to control; bars, SEM. (*p < 0.05; **p < 0.01; ^§p < 0.001). IC50 levels for SK-F for 72, 96 and 120 h were 7, 4.5 and 3 µM, respectively

The test system of the next data set is SK. Further details: method as in PMID 14522923. The settings on record: commercial inhibitor of SK, positive control; read-out: reported IC50; cited from earlier work.

T2 sequence (Q9NYA1 whole entry): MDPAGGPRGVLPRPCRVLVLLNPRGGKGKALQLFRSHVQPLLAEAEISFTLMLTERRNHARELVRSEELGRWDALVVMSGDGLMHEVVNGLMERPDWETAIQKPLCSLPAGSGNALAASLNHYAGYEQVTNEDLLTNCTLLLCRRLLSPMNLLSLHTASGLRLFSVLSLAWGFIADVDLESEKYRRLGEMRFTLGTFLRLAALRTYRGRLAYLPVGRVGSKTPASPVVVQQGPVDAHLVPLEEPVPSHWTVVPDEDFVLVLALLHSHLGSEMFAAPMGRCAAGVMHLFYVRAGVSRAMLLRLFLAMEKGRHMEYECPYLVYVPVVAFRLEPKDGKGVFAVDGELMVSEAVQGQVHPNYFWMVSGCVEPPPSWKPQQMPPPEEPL
recombinant SK1, sequence (Q9NYA1 whole entry): as above
T1 sequence (Q8CI15 whole entry): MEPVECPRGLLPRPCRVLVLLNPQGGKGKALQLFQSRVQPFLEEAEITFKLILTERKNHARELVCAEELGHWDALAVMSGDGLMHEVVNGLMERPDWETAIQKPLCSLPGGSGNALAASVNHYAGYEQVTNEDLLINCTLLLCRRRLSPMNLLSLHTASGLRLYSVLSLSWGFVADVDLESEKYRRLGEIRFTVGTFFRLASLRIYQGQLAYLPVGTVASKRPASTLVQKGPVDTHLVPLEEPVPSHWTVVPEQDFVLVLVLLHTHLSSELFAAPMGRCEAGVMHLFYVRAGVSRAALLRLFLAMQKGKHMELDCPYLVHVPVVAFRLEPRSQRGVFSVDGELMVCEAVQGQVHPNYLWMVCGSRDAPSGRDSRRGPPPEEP

As to `CC(=O)O[C@@]12CO[C@@H]1C[C@H](O)[C@@]1(C)C(=O)[C@H](O)C3=C(C)[C@@H](OC(=O)[C@H](O)[C@@H](NC(=O)OC(C)(C)C)c4ccccc4)C[C@@](O)([C@@H](OC(=O)c4ccccc4)[C@H]21)C3(C)C` [DTX, docetaxel, reference compound], the “tumour volume at the end of the study” value in [1] was 281 mm^3. For the same compound, in data set [2], the Hb was 65 ± 7 % of control ± SEM, the WCC is listed as 54 ± 4 % of control ± SEM, the “Weight of Body” value is 86 ± 7 % of control ± SEM and the “Weight of Kidney” value was 97 ± 5.9^a % of control ± SEM. In addition, in data set [2], the “Weight of Liver” value is 85.3 ± 11.4^a % of control ± SEM, the “Weight of Lungs” value is reported as 99.4 ± 4.a % of control ± SEM and the “Weight of Spleen” value was 91.3 ± 15.4^a % of control ± SEM. Besides, the “tumour SK1 activity” value at tumour SK1 was “no effect”. Further, in [3], the “alanine transaminases (ALT)” value is reported as “significant increases”, the “alkaline phosphatase (ALP)” value is listed as “milder increase” and the “aspartate transaminase (AST)” value is “significant increases”.

With `CCCCCCCCc1ccc(NC(=O)C2CCNCC2)cc1` [SK-C], in data set [4], the “SK1 activity in cells versus vehicle” value is “significantly decreased”. In the data set on SK1 protein, the “decrease in SK1 protein” value came to 75%. For the same compound, the “effect on SK1 mRNA expression” value in the data set on SK1 mRNA is “reduction in SK1 mRNA”. For the same compound, at recombinant SK1, the “inhibition of SK1 activity in cell-free settings” value was “ineffective”. Also, the “effect on MDA-MB-231 cancer cell proliferation” value in the data set with MDA-MB-231 cells is reported as “highest effect”.

Turning to `CCCCCCCCc1ccc(NC(=O)c2cccc(Cl)c2)cc1` [SK-E], the “SK1 activity in cells versus vehicle” value in [4] is “significantly decreased”. Also, the “inhibition of SK1 activity in cell-free settings” value at recombinant SK1 is “statistically significant inhibition”.

The term IC50 denotes the concentration that inhibits the measured activity by half. Take `Oc1ccc(Nc2nc(-c3ccc(Cl)cc3)cs2)cc1` [SKI-II, reference compound]: the “effect on SK1 protein” value in the data set on SK1 protein is “significant decrease”. For the same compound, the “effect on SK1 mRNA expression” value in the data set on SK1 mRNA is reported as “minimal effect”. Besides, the IC50 in the data set on SK was 500 nM.
